Measurements published in ChEMBL document CHEMBL1139847, “Carbonic anhydrase inhibitors. DNA cloning, characterization, and inhibition studies of the human secretory isoform VI, a new target for sulfonamide and sulfamate inhibitors” (J Med Chem, 2007).
Blank lines part the entries; values can stand above or below the molecule they belong to.

Tests used:
Carbonic anhydrase 6 = Carbonic anhydrase 6 (Homo sapiens, UniProt P23280)
Carbonic anhydrase 9 = Carbonic anhydrase 9 (Homo sapiens, UniProt Q16790)

Carbonic anhydrase 6, sequence (P23280 whole entry): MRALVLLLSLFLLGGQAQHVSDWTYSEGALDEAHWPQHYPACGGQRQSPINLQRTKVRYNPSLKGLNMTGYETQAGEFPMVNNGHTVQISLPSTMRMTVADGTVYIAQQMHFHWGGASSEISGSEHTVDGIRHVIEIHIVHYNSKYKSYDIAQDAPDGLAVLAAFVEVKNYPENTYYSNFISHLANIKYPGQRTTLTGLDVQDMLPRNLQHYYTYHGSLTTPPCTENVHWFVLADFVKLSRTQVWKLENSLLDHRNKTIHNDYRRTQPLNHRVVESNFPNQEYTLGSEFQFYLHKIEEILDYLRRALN

SMILES: NNc1ccccc1S(N)(=O)=O
- Ki (Carbonic anhydrase 6): 1090 nM

SMILES: Nc1ccc(S(=O)(=O)NCc2ccc(S(N)(=O)=O)cc2)cc1
- Ki (Carbonic anhydrase 6): 55 nM

SMILES: Nc1ccc(S(N)(=O)=O)cc1I
- Ki (Carbonic anhydrase 6): 1020 nM

SMILES: Nc1ccc(S(=O)(=O)Nc2nnc(S(N)(=O)=O)s2)cc1
- Ki (Carbonic anhydrase 6): 73 nM

SMILES: Nc1nccc(Nc2ccc(S(N)(=O)=O)cc2)n1
- Ki (Carbonic anhydrase 6): 86 nM

SMILES: Nc1ccccc1S(N)(=O)=O
- Ki (Carbonic anhydrase 6): 772 nM

SMILES: Nc1ccc(S(N)(=O)=O)cc1Br
- Ki (Carbonic anhydrase 6): 4680 nM

SMILES: Cn1nc(S(N)(=O)=O)sc1=N
- Ki (Carbonic anhydrase 6): 740 nM

SMILES: NS(=O)(=O)c1ccc(CCO)cc1
- Ki (Carbonic anhydrase 6): 4150 nM

SMILES: Nc1ccc(S(N)(=O)=O)cc1F
- Ki (Carbonic anhydrase 6): 96 nM

SMILES: NS(=O)(=O)c1ccc(CO)cc1
- Ki (Carbonic anhydrase 6): 6680 nM

SMILES: Nc1ccc(S(N)(=O)=O)cc1Cl
- Ki (Carbonic anhydrase 6): 1100 nM

SMILES: Nc1ccc(S(=O)(=O)NCCc2ccc(S(N)(=O)=O)cc2)cc1
- Ki (Carbonic anhydrase 6): 24 nM

- Ki (Carbonic anhydrase 6): 1270 nM
SMILES: NNc1ccc(S(N)(=O)=O)cc1

SMILES: NS(=O)(=O)c1ccc(S(=O)(=O)Nc2cccc3c(Cl)c[nH]c23)cc1
- Ki (Carbonic anhydrase 6): 47 nM

SMILES: CCN[C@H]1CN(CCCOC)S(=O)(=O)c2sc(S(N)(=O)=O)cc21 [BRINZOLAMIDE]
- Ki (Carbonic anhydrase 6): 0.9 nM

SMILES: NS(=O)(=O)c1ccc(C(=O)O)cc1 [CARZENIDE]
- Ki (Carbonic anhydrase 6): 887 nM

SMILES: NCc1ccc(S(N)(=O)=O)cc1 [MAFENIDE]
- Ki (Carbonic anhydrase 6): 4800 nM

SMILES: Cc1ccc(S(N)(=O)=O)cc1 [P-TOLUENESULFONAMIDE]
- Ki (Carbonic anhydrase 6): 1580 nM
- Ki (Carbonic anhydrase 9): 460 nM

SMILES: Nc1ccc(S(N)(=O)=O)cc1 [SULFANILAMIDE]
- Ki (Carbonic anhydrase 6): 941 nM
